Laboratory results reported in paper PMC8448819, “The Arabidopsis MIK2 receptor elicits immunity by sensing a conserved signature from phytocytokines and microbes” (Nature Communications, 2021).

Assays:
MIK2-BAK1 association = assay: Co-immunoprecipitation MIK2-BAK1; assay type: cell-based, Arabidopsis thaliana; details: co-IP
Procedure: For co-IP assays in protoplasts, protoplasts were co-transfected with pHBT-35S::MIK2-HA and pHBT-35S::BAK1-FALG or pHBT-35S::SERK4-FLAG at 50 μg DNA for 500 μL protoplasts at the density of 2 × 10^5/mL for each sample and were incubated for 12 h. After treatment with 1 µM SCOOP peptides for 15 min, samples were collected by centrifugation at 200 × g for 2 min and lysed in 300 μL IP buffer (20 mM Tris-HCl, pH 7.5, 100 mM NaCl, 1 mM EDTA, 2 mM DTT, 10% [v/v] Glycerol, 0.5% [v/v] Triton X-100 and protease inhibitor cocktail from Sigma) by vortexing. After centrifugation at 10,000 × g for 10 min at 4 °C, 30 μL of supernatant was collected for input controls. The remaining supernatant was pre-incubated with protein-G-agarose beads at 4 °C for 1 h with gentle shaking at […] on a rocker. IP was carried out with α-FLAG agarose for 3 h at 4 °C. Beads were collected by 500 × g centrifugation for 2 min and washed three times with washing buffer (20 mM Tris-HCl, pH 7.5, 100 mM NaCl, 1 mM EDTA, 0.1% [v/v] Triton X-100) and once with 50 mM Tris-HCl, pH 7.5. Immunoprecipitated proteins and input proteins were analyzed by immunoblotting with α-HA (1:3000; Roche, Cat # 12013819001) or α-FLAG antibodies (1:3000; Sigma-Aldrich, Cat # A8592).
For co-IP assays in transgenic seedlings, leaves of 4-week-old pMIK2::MIK2-GFP transgenic plants were hand-inoculated with 1 μM SCOOP10^B or SCOOP12 and were treated for 30 min, followed by total protein isolation with extraction buffer (50 mM Tris-HCl, pH 7.5, 150 mM NaCl, 1% [v/v] NP-40 and 1:200 protease inhibitor cocktail from Sigma). Co-IP was carried out the same as for co-IP with protoplasts except that GFP-Trap agarose beads (Chromotek) were used instead. Immunoprecipitated proteins and input proteins were analyzed by immunoblotting with α-GFP (1:3500; Roche, Cat # 11814460001) or α-BAK1 antibodies (1:2000)[64].

[1] = test system: mik2-like, rlk7, pepr1,2, hae/hsl2 and fls2 mutant seedlings; assay: Root growth assay, other receptor kinase mutants; assay type: in vivo, Arabidopsis thaliana; details: Supplementary Fig. 4c
From the text: The Arabidopsis thaliana accession Columbia-0 (Col-0) was used as wild type (WT). T-DNA insertion mutants of mik2-1 (SALK_061769), mik2-2 (SALK_046987), mik2-like (SALK_112341), and rlk7-3 (SALK_120595) were obtained from the Nottingham Arabidopsis Stock Centre (NASC). The fls2 (SALK_141277), bak1-4, bik1-1/pbl1-1, bak1-5/serk4-1, rbohd mutants, and the transgenic line expressing p35S::GFP have been reported previously[19],[62],[63]. The hae/hsl2 mutant was kindly provided by Dr. Reidunn B. Aalen (University of Oslo, Norway), the pepr1-2/pepr2-2 (pepr1,2) mutant by Dr. Zhi Qi (Inner Mongolia University, China), the scoop12 mutant by Dr. Sébastien Aubourg (INRA, France), a transgenic line expressing p35S::Aequorin by Dr. Marc Knight (Durham University, UK), transgenic line expressing pMYB51::GUS by Dr. Frederick M. Ausubel (Harvard Medical School, USA). […]
Cold stratified seeds were surface-sterilized with 70% (v/v) ethanol for 5 min and were sown on ½MS plates with or without peptides at indicated concentrations. Ten-day-old seedlings grown on plates vertically in a growth chamber were photographed, and the root lengths of seedlings were measured using Image J (http://rsb.info.nih.gov/ij/).

[2] = test system: WRKY30, WRKY33 and CYP81F2 expression, WT seedlings; assay: RT-qPCR of defense genes, WT; assay type: in vivo, Arabidopsis thaliana
BIK1 = BIK1 phosphorylation assay; assay type: cell-based, Arabidopsis thaliana; details: protoplasts expressing BIK1-HA, 1 μM, 15 min, mobility shift
Procedure: WT protoplasts were transfected with pHBT-35S::BIK1-HA for 12 h followed by treatment with 1 μM SCOOP peptides for 15 min.

[3] = test system: RLK7^ECD-MIK2^TK/rlk7 and RLK7/rlk7 transgenic seedlings; assay: ROS assay (luminol), RLK7/rlk7 and RLK7^ECD-MIK2^TK/rlk7 seedlings; assay type: in vivo, Arabidopsis thaliana; details: for ROS production, total: Fig. 1d
Procedure: ROS burst was determined by a luminol-based assay. […] Then, ddH2O was replaced by 200 µL of reaction solution containing 50 µM of luminol, and 10 µg/mL of horseradish peroxidase (Sigma-Aldrich) supplemented with or without 100 nM or 1 μM peptide. Luminescence was measured immediately after adding the solution with a luminometer (Glomax 20/20n, Promega) with a one-second interval for 15 min. The total values of ROS production were indicated as means of the relative light units (RLUs).

In the case of “PNGDIFTGPSGSGHGGGR [SCOOP10B, synthesized SCOOP peptide corresponding to the SxS motif]”, the “MIK2-BAK1 association” value (MIK2-BAK1 association; pMIK2::MIK2-GFP/mik2 leaves, 1 μM, 30 min) was “stimulated upon the treatment”, the “MIK2-BAK1 association in protoplasts” value (MIK2-BAK1 association; protoplasts, MIK2-HA and BAK1-FLAG, 15 min) was “also observed in protoplasts” and the “response of fls2” value ([1]; fls2, root growth) was “responded to SCOOP10^B similarly to WT plants”. The “response of MIK2L, RLK7, PEPR1, PEPR2, HAE and HSL2 mutants” value ([1]; root growth) was “not involved in responsiveness to SCOOP10^B”, the “WRKY30, WRKY33 and CYP81F2 expression” value ([2]; 1 µM, 1 h, RT-qPCR) was “upregulation” and the “CYP81F2 expression (Fig. 3i)” value ([2]; repeat 1) was 82.36. For the same substance, the “CYP81F2 expression (Fig. 3i)” value ([2]; repeat 2) was 146.22, the “CYP81F2 expression (Fig. 3i)” value ([2]; repeat 3) was 132.08 and the “CYP81F2 expression (Fig. 3i)” value ([2]; repeat 4) was 187.19. For the same substance, the “BIK1 phosphorylation” value (BIK1) was “led to the phosphorylation of BIK1”.
“RLASGP(OH)SPRGRGH [PIP1, secreted peptide, ligand of RLK7]” was tested, and the “ROS production, total” value ([3]; RLK7/rlk7 L4, 100 nM PIP1, one-week-old seedlings, repeat 1) was 239291 RLU, the “ROS production, total” value ([3]; RLK7/rlk7 L4, 100 nM PIP1, one-week-old seedlings, repeat 2) was 252204 RLU and the “ROS production, total” value ([3]; RLK7/rlk7 L4, 100 nM PIP1, one-week-old seedlings, repeat 3) was 283681 RLU. The “ROS production, total” value ([3]; RLK7/rlk7 L4, 100 nM PIP1, one-week-old seedlings, repeat 4) was 318922 RLU, the “ROS production, total” value ([3]; RLK7/rlk7 L5, 100 nM PIP1, one-week-old seedlings, repeat 1) was 275783 RLU and the “ROS production, total” value ([3]; RLK7/rlk7 L5, 100 nM PIP1, one-week-old seedlings, repeat 2) was 220663 RLU. For the same substance, the “ROS production, total” value ([3]; RLK7/rlk7 L5, 100 nM PIP1, one-week-old seedlings, repeat 3) was 252086 RLU, the “ROS production, total” value ([3]; RLK7/rlk7 L5, 100 nM PIP1, one-week-old seedlings, repeat 4) was 358908 RLU and the “ROS production, total” value ([3]; RLK7ECD-MIK2TK/rlk7 L9, 100 nM PIP1, one-week-old seedlings, repeat 1) was 1753777 RLU. For the same substance, the “ROS production, total” value ([3]; RLK7ECD-MIK2TK/rlk7 L9, 100 nM PIP1, one-week-old seedlings, repeat 2) was 1827311 RLU, the “ROS production, total” value ([3]; RLK7ECD-MIK2TK/rlk7 L9, 100 nM PIP1, one-week-old seedlings, repeat 3) was 2926668 RLU and the “ROS production, total” value ([3]; RLK7ECD-MIK2TK/rlk7 L9, 100 nM PIP1, one-week-old seedlings, repeat 4) was 3467034 RLU. For the same substance, the “ROS production, total” value ([3]; RLK7ECD-MIK2TK/rlk7 L9, 100 nM PIP1, one-week-old seedlings, repeat 5) was 1491639 RLU, the “ROS production, total” value ([3]; RLK7ECD-MIK2TK/rlk7 L16, 100 nM PIP1, one-week-old seedlings, repeat 1) was 3868648 RLU and the “ROS production, total” value ([3]; RLK7ECD-MIK2TK/rlk7 L16, 100 nM PIP1, one-week-old seedlings, repeat 2) was 1259772 RLU. The “ROS production, total” value ([3]; RLK7ECD-MIK2TK/rlk7 L16, 100 nM PIP1, one-week-old seedlings, repeat 3) was 2844613 RLU, the “ROS production, total” value ([3]; RLK7ECD-MIK2TK/rlk7 L16, 100 nM PIP1, one-week-old seedlings, repeat 4) was 3037378 RLU and the “ROS production, total” value ([3]; RLK7ECD-MIK2TK/rlk7 L16, 100 nM PIP1, one-week-old seedlings, repeat 5) was 940879 RLU. For the same substance, the “ROS production” value ([3]; RLK7/rlk7, 100 nM PIP1) was “weakly induced ROS production” and the “ROS production” value ([3]; RLK7^ECD-MIK2^TK/rlk7, 100 nM PIP1) was “robust production of ROS”.
